“And” between values parts separate entries of the source, which are not always exact repeats. Equal values may be shown once. Read-outs that look alike come from different tables or passages of the source.
Tested on: patients with ALS
[1] = 50 mg, No Riluzole Use, through Week 28
[2] = 50 mg, Riluzole Use, through Week 28
[3] = 50 mg, double-blind treatment period
[4] = 50 mg, through the end of the study
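Further: adverse event data gathered at every clinic visit and phone contact, after first study drug dose, in a blinded trial, counts of affected subjects.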

## CCCN[C@@H]1CCc2nc(N)sc2C1 [dexpramipexole, (6R)-2-amino-4,5,6,7-tetrahydro-6-(propylamino)benzothiazole]
50 mg
  subjects with increase from baseline in QTcF >30 msec: Four
50 mg and 300 mg groups together, double-blind period
  subjects with decrease in weight >7% from baseline: 30 subjects
[1]
  AE: Anxiety: 1 (4%) N (%)
  AE: Constipation: 4 (17%) N (%)
  AE: Depression: 4 (17%) N (%)
  AE: Dry mouth: 0 N (%)
  AE: Dysarthria: 1 (4%) N (%)
  AE: Dyspnoea: 3 (13%) N (%)
  AE: Fall: 6 (26%) N (%)
  AE: Headache: 1 (4%) N (%)
  AE: Muscular weakness: 7 (30%) N (%)
  AE: Nausea: 2 (9%) N (%)
  AE: Oedema peripheral: 4 (17%) N (%)
  AE: Pharyngolaryngeal pain: 1 (4%) N (%)
  AE: Sinusitis: 1 (4%) N (%)
  AE: Upper respiratory tract infection: 2 (9%) N (%)
  AE: Urinary tract infection: 1 (4%) N (%)
[2]
  AE: Anxiety: 1 (4%) N (%)
  AE: Constipation: 4 (16%) N (%)
  AE: Depression: 2 (8%) N (%)
  AE: Dry mouth: 1 (4%) N (%)
  AE: Dysarthria: 3 (12%) N (%)
  AE: Dyspnoea: 2 (8%) N (%)
  AE: Fall: 5 (20%) N (%)
  AE: Headache: 2 (8%) N (%)
  AE: Muscular weakness: 6 (24%) N (%)
  AE: Nausea: 2 (8%) N (%)
  AE: Oedema peripheral: 3 (12%) N (%)
  AE: Pharyngolaryngeal pain: 3 (12%) N (%)
  AE: Sinusitis: 1 (4%) N (%)
  AE: Upper respiratory tract infection: 3 (12%) N (%)
  AE: Urinary tract infection: 2 (8%) N (%)
50 mg, any post-baseline visit
  incidence of ECGs with QTcB increased >30 msec from baseline: 17%
  subjects with QTcF interval >450 msec: Two
[3]
  AEs related to ALS as assessed by the Investigator: 85%
  subjects with prolonged QTcB: 6 subjects
  subjects with serum chemistry abnormalities of potential clinical significance: 4 subjects
50 mg, through Week 28
  ALS-related TEAE: Affect liability: 2 (4%) N (%)
  ALS-related TEAE: Arthralgia: 1 (2%) N (%)
  ALS-related TEAE: Choking: 2 (4%) N (%)
  ALS-related TEAE: Constipation: 4 (8%) N (%)
  ALS-related TEAE: Contusion: 1 (2%) N (%)
  ALS-related TEAE: Dehydration: 0 N (%)
  ALS-related TEAE: Depression: 1 (2%) N (%)
  ALS-related TEAE: Disease progression: 2 (4%) N (%)
  ALS-related TEAE: Dysarthria: 4 (8%) N (%)
  ALS-related TEAE: Dysphagia: 5 (10%) N (%)
  ALS-related TEAE: Dysphasia: 1 (2%) N (%)
  ALS-related TEAE: Dyspnoea: 4 (8%) N (%)
  ALS-related TEAE: Dyspnoea exertional: 0 N (%)
  ALS-related TEAE: Fall: 10 (21%) N (%)
  ALS-related TEAE: Fatigue: 3 (6%) N (%)
  ALS-related TEAE: Gastrointestinal Disorders: 16 (33%) N (%)
  ALS-related TEAE: General Disorders and Administration Site Conditions: 8 (17%) N (%)
  ALS-related TEAE: Increased upper airway secretion: 1 (2%) N (%)
  ALS-related TEAE: Injury, Poisoning and Procedural Complications: 10 (21%) N (%)
  ALS-related TEAE: Investigations: 3 (6%) N (%)
  ALS-related TEAE: Metabolism and Nutrition Disorders: 1 (2%) N (%)
  ALS-related TEAE: Muscle contractions involuntary: 3 (6%) N (%)
  ALS-related TEAE: Muscle spasticity: 5 (10%) N (%)
  ALS-related TEAE: Muscle twitching: 1 (2%) N (%)
  ALS-related TEAE: Muscular weakness: 12 (25%) N (%)
  ALS-related TEAE: Musculoskeletal and Connective Tissue Disorders: 19 (40%) N (%)
  ALS-related TEAE: Musculoskeletal pain: 1 (2%) N (%)
  ALS-related TEAE: Myalgia: 2 (4%) N (%)
  ALS-related TEAE: Neck pain: 1 (2%) N (%)
  ALS-related TEAE: Nervous System Disorders: 11 (23%) N (%)
  ALS-related TEAE: Oedema peripheral: 3 (6%) N (%)
  ALS-related TEAE: Pain in extremity: 2 (4%) N (%)
  ALS-related TEAE: Psychiatric Disorders: 2 (4%) N (%)
  ALS-related TEAE: Respiratory failure: 4 (8%) N (%)
  ALS-related TEAE: Respiratory, Thoracic and Mediastinal Disorders: 11 (23%) N (%)
  ALS-related TEAE: Salivary hypersecretion: 8 (17%) N (%)
  ALS-related TEAE: Vital capacity decreased: 2 (4%) N (%)
  ALS-related TEAE: Weight decreased: 0 N (%)
  Number of TEAEs: 277
  Number of serious TEAEs: 15
  Number of serious treatment-related TEAE: 1
  Number of severe TEAEs: 17
  Number of treatment-related TEAEs: 35
  TEAE: Anxiety: 2 (4%) N (%)
  TEAE: Arthralgia: 2 (4%) N (%)
  TEAE: Cardiac Disorders: 2 (4%) N (%)
  TEAE: Constipation: 8 (17%) N (%)
  TEAE: Cough: 1 (2%) N (%)
  TEAE: Dehydration: 1 (2%) N (%)
  TEAE: Depression: 6 (13%) N (%)
  TEAE: Dizziness: 0 N (%)
  TEAE: Dry mouth: 2 N (%) and 1 (2%) N (%)
  TEAE: Dysarthria: 4 (8%) N (%)
  TEAE: Dysphagia: 5 (10%) N (%)
  TEAE: Dyspnoea: 5 (10%) N (%)
  TEAE: Fall: 11 (23%) N (%)
  TEAE: Fatigue: 3 (6%) N (%)
  TEAE: Gastrointestinal Disorders: 21 (44%) N (%)
  TEAE: General Disorders and Administration Site Conditions: 14 (29%) N (%)
  TEAE: Headache: 3 (6%) N (%)
  TEAE: Hyperglycaemia: 0 N (%)
  TEAE: Infections and Infestations: 21 (44%) N (%)
  TEAE: Injury, Poisoning and Procedural Complication: 15 (31%) N (%)
  TEAE: Insomnia: 0 N (%)
  TEAE: Metabolism and Nutrition Disorders: 6 (13%) N (%)
  TEAE: Muscle contractions involuntary: 3 (6%) N (%)
  TEAE: Muscle spasticity: 5 (10%) N (%)
  TEAE: Musculoskeletal and Connective Tissue Disorders: 22 (46%) N (%)
  TEAE: Musculoskeletal pain: 2 (4%) N (%)
  TEAE: Nausea: 4 (8%) N (%)
  TEAE: Neck pain: 1 (2%) N (%)
  TEAE: Nervous System Disorders: 16 (33%) N (%)
  TEAE: Pharyngolaryngeal pain: 4 (8%) N (%)
  TEAE: Pneumonia: 3 (6%) N (%)
  TEAE: Pruritus: 3 (6%) N (%)
  TEAE: Psychiatric Disorders: 9 (19%) N (%)
  TEAE: Rash: 2 (4%) N (%)
  TEAE: Respiratory failure: 4 (8%) N (%)
  TEAE: Respiratory, Thoracic and Mediastinal Disorders: 17 (35%) N (%)
  TEAE: Salivary hypersecretion: 8 (17%) N (%)
  TEAE: Sinusitis: 2 (4%) N (%)
  TEAE: Skin and Subcutaneous Tissue Disorders: 14 (29%) N (%)
  TEAE: Tachycardia: 1 (2%) N (%)
  TEAE: Upper respiratory tract infection: 5 (10%) N (%)
  TEAE: Urinary tract infection: 3 (6%) N (%)
  TEAE: Vomiting: 3 (6%) N (%)
  serious TEAE: Acute myocardial infarction: 1 (2%) N (%)
  serious TEAE: Atrial fibrillation: 0 N (%)
  serious TEAE: Blood and Lymphatic System Disorders: 0 N (%)
  serious TEAE: Cardiac Disorders: 1 (2%) N (%)
  serious TEAE: Cardiac failure congestive: 1 (2%) N (%)
  serious TEAE: Cholecystitis acute: 0 N (%)
  serious TEAE: Concussion: 0 N (%)
  serious TEAE: Disease progression: 1 (2%) N (%)
  serious TEAE: Dyspnoea: 1 (2%) N (%)
  serious TEAE: Fall: 0 N (%)
  serious TEAE: Gastrointestinal Disorders: 1 (2%) N (%)
  serious TEAE: General Disorders and Administration Site Conditions: 2 (4%) N (%)
  serious TEAE: Hepatobiliary Disorders: 0 N (%)
  serious TEAE: Ileus: 1 (2%) N (%)
  serious TEAE: Infections and Infestations: 3 (6%) N (%)
  serious TEAE: Injury, Poisoning and Procedural Complications: 0 N (%)
  serious TEAE: Neutropenia: 0 N (%)
  serious TEAE: Pneumonia: 1 (2%) N (%)
  serious TEAE: Pneumonia aspiration: 0 N (%)
  serious TEAE: Pneumonia bacterial: 1 (2%) N (%)
  serious TEAE: Pulmonary embolism: 1 (2%) N (%)
  serious TEAE: Respiratory distress: 1 (2%) N (%)
  serious TEAE: Respiratory failure: 4 (8%) N (%)
  serious TEAE: Respiratory, Thoracic and Mediastinal Disorders: 5 (10%) N (%)
  serious TEAE: Subdural haematoma: 0 N (%)
  serious TEAE: Sudden death: 1 (2%) N (%)
  serious TEAE: Viral infection: 1 (2%) N (%)
  ≧1 TEAE with an outcome of death: 7 N (%) and 7 (15%) N (%)
  ≧1 serious TEAE (including death): 11 N (%) and 11 (23%) N (%)
  ≧1 serious treatment-related TEAE: 1 (2%) N (%)
  ≧1 severe TEAE: 12 (25%) N (%) and 12 N (%)
[4]
  Number of TEAEs: 333
  Number of serious TEAEs: 18
  Number of serious treatment-related TEAEs: 1
  Number of severe TEAEs: 20
  Number of treatment-related TEAEs: 39
  Subjects with a TEAE with action taken of study drug discontinued: 2 N (%) and 2 (4%) N (%)
  subjects with TEAEs with an outcome of death (b230 count): 7 subjects
  ≧1 TEAE with an outcome of death: 7 N (%) and 7 (15%) N (%)
  ≧1 serious TEAE (including death): 14 N (%) and 14 (29%) N (%)
